Source: the supplement of paper PMC10307832

Legend:
Experiment in all cases: relative viability (nuclei count vs DMSO), 5 days (fraction); higher = more cells survive
[1] = compound: CN(C)C/C=C/C(=O)Nc1cc2c(Nc3ccc(F)c(Cl)c3)ncnc2cc1O[C@H]1CCOC1 [Afatinib] + COc1cccc2cc(-c3nc([C@H]4CC[C@H](C(=O)O)CC4)n4ncnc(N)c34)[nH]c12 [OSI-027] (partner 0.5 µM)
Outline: (§1)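 Medians of duplicate plates are given as relative viability. That measure is the nuclei count in treated wells divided by the count in vehicle wells. Counts were taken on 4× images of lung cancer cell lines in 1536-well plates, 5 days after pin-tool dosing the day after seeding with one drug alone or a fixed anchor-drug dose plus five library-drug doses (not always all listed) in √10 steps.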

[2] = compound: CN(C)C/C=C/C(=O)Nc1cc2c(Nc3ccc(F)c(Cl)c3)ncnc2cc1O[C@H]1CCOC1 [Afatinib] + NC(=O)Nc1cc(-c2cccc(F)c2)sc1C(=O)N[C@H]1CCCNC1 [AZD7762] (partner 0.2 µM)
Outline: as §1

[3] = compound: CN(C)C/C=C/C(=O)Nc1cc2c(Nc3ccc(F)c(Cl)c3)ncnc2cc1O[C@H]1CCOC1 [Afatinib] + COc1cc2c(Oc3ccc(NC(=O)C4(C(=O)Nc5ccc(F)cc5)CC4)cc3F)ccnc2cc1OCCCN1CCOCC1 [Foretinib] (partner 0.25 µM)
Outline: as §1

[4] = compound: CN(C)C/C=C/C(=O)Nc1cc2c(Nc3ccc(F)c(Cl)c3)ncnc2cc1O[C@H]1CCOC1 [Afatinib] + Nc1nc2[nH]cc(CCc3ccc(C(=O)N[C@@H](CCC(=O)O)C(=O)O)cc3)c2c(=O)[nH]1 [Pemetrexed] (partner 0.2 µM)
Outline: as §1

NCI-H2342 was tested, and the relative viability ([1]; first compound 0.005 µM) was 0.669, the relative viability ([1]; first compound 0.01581 µM) was 0.539 and the relative viability ([1]; first compound 0.05 µM) was 0.546. For the same cell line, the relative viability ([1]; first compound 0.1581 µM) was 0.558, the relative viability ([1]; first compound 0.5 µM) was 0.485 and the relative viability ([2]; first compound 0.005 µM) was 0.562. For the same cell line, the relative viability ([2]; first compound 0.01581 µM) was 0.488, the relative viability ([2]; first compound 0.05 µM) was 0.477 and the relative viability ([2]; first compound 0.1581 µM) was 0.434. It also gave a relative viability ([2]; first compound 0.5 µM) of 0.474, a relative viability ([3]; first compound 0.005 µM) of 0.892 and a relative viability ([3]; first compound 0.01581 µM) of 0.895. For the same cell line, the relative viability ([3]; first compound 0.05 µM) was 0.856, the relative viability ([3]; first compound 0.1581 µM) was 0.743 and the relative viability ([3]; first compound 0.5 µM) was 0.774. The relative viability ([4]; first compound 0.005 µM) was 0.763, the relative viability ([4]; first compound 0.01581 µM) was 0.762 and the relative viability ([4]; first compound 0.05 µM) was 0.706. The relative viability ([4]; first compound 0.1581 µM) was 0.777 and the relative viability ([4]; first compound 0.5 µM) was 0.747.

A-427 showed a relative viability ([1]; first compound 0.005 µM) of 0.426, a relative viability ([1]; first compound 0.01581 µM) of 0.321 and a relative viability ([1]; first compound 0.05 µM) of 0.446. For the same cell line, the relative viability ([1]; first compound 0.1581 µM) was 0.519, the relative viability ([1]; first compound 0.5 µM) was 0.358 and the relative viability ([2]; first compound 0.005 µM) was 0.587. For the same cell line, the relative viability ([2]; first compound 0.01581 µM) was 0.705, the relative viability ([2]; first compound 0.05 µM) was 0.823 and the relative viability ([2]; first compound 0.1581 µM) was 0.676. For the same cell line, the relative viability ([2]; first compound 0.5 µM) was 0.698, the relative viability ([3]; first compound 0.005 µM) was 0.85 and the relative viability ([3]; first compound 0.01581 µM) was 1.05. The relative viability ([3]; first compound 0.05 µM) was 1.11, the relative viability ([3]; first compound 0.1581 µM) was 0.947 and the relative viability ([3]; first compound 0.5 µM) was 1.02. The relative viability ([4]; first compound 0.005 µM) was 1.05, the relative viability ([4]; first compound 0.01581 µM) was 1.03 and the relative viability ([4]; first compound 0.05 µM) was 1.05. It also gave a relative viability ([4]; first compound 0.1581 µM) of 0.969 and a relative viability ([4]; first compound 0.5 µM) of 0.983.

H3255 was tested, and the relative viability ([1]; first compound 0.005 µM) was 0.239, the relative viability ([1]; first compound 0.01581 µM) was 0.231 and the relative viability ([1]; first compound 0.05 µM) was 0.214. The relative viability ([1]; first compound 0.1581 µM) was 0.209, the relative viability ([1]; first compound 0.5 µM) was 0.208 and the relative viability ([2]; first compound 0.005 µM) was 0.405. For the same cell line, the relative viability ([2]; first compound 0.01581 µM) was 0.284, the relative viability ([2]; first compound 0.05 µM) was 0.278 and the relative viability ([2]; first compound 0.1581 µM) was 0.259. It also gave a relative viability ([2]; first compound 0.5 µM) of 0.287, a relative viability ([3]; first compound 0.005 µM) of 0.861 and a relative viability ([3]; first compound 0.01581 µM) of 0.134. The relative viability ([3]; first compound 0.05 µM) was 0.2, the relative viability ([3]; first compound 0.1581 µM) was 0.216 and the relative viability ([3]; first compound 0.5 µM) was 0.188. The relative viability ([4]; first compound 0.005 µM) was 0.365, the relative viability ([4]; first compound 0.01581 µM) was 0.313 and the relative viability ([4]; first compound 0.05 µM) was 0.306. The relative viability ([4]; first compound 0.1581 µM) was 0.307 and the relative viability ([4]; first compound 0.5 µM) was 0.273.

NCI-H1734 was tested, and the relative viability ([1]; first compound 0.005 µM) was 0.671, the relative viability ([1]; first compound 0.01581 µM) was 0.624 and the relative viability ([1]; first compound 0.05 µM) was 0.587. The relative viability ([1]; first compound 0.1581 µM) was 0.57, the relative viability ([1]; first compound 0.5 µM) was 0.511 and the relative viability ([2]; first compound 0.005 µM) was 0.389. It also gave a relative viability ([2]; first compound 0.01581 µM) of 0.602, a relative viability ([2]; first compound 0.05 µM) of 0.58 and a relative viability ([2]; first compound 0.1581 µM) of 0.498. It also gave a relative viability ([2]; first compound 0.5 µM) of 0.471, a relative viability ([3]; first compound 0.005 µM) of 0.926 and a relative viability ([3]; first compound 0.01581 µM) of 0.785. For the same cell line, the relative viability ([3]; first compound 0.05 µM) was 0.83, the relative viability ([3]; first compound 0.1581 µM) was 0.73 and the relative viability ([3]; first compound 0.5 µM) was 0.924. The relative viability ([4]; first compound 0.005 µM) was 0.411, the relative viability ([4]; first compound 0.01581 µM) was 0.374 and the relative viability ([4]; first compound 0.05 µM) was 0.406. It also gave a relative viability ([4]; first compound 0.1581 µM) of 0.375 and a relative viability ([4]; first compound 0.5 µM) of 0.453.

NCI-H1993 gave a relative viability ([1]; first compound 0.005 µM) of 0.519, a relative viability ([1]; first compound 0.01581 µM) of 0.588 and a relative viability ([1]; first compound 0.05 µM) of 0.674. For the same cell line, the relative viability ([1]; first compound 0.1581 µM) was 0.697, the relative viability ([1]; first compound 0.5 µM) was 0.564 and the relative viability ([2]; first compound 0.005 µM) was 0.548. It also gave a relative viability ([2]; first compound 0.01581 µM) of 0.521, a relative viability ([2]; first compound 0.05 µM) of 0.544 and a relative viability ([2]; first compound 0.1581 µM) of 0.432. For the same cell line, the relative viability ([2]; first compound 0.5 µM) was 0.416, the relative viability ([3]; first compound 0.005 µM) was 0.551 and the relative viability ([3]; first compound 0.01581 µM) was 0.598. For the same cell line, the relative viability ([3]; first compound 0.05 µM) was 0.6, the relative viability ([3]; first compound 0.1581 µM) was 0.675 and the relative viability ([3]; first compound 0.5 µM) was 0.618. For the same cell line, the relative viability ([4]; first compound 0.005 µM) was 0.569, the relative viability ([4]; first compound 0.01581 µM) was 0.526 and the relative viability ([4]; first compound 0.05 µM) was 0.638. For the same cell line, the relative viability ([4]; first compound 0.1581 µM) was 0.551 and the relative viability ([4]; first compound 0.5 µM) was 0.506.

With NCI-H1437 the relative viability ([1]; first compound 0.005 µM) was 0.988, the relative viability ([1]; first compound 0.01581 µM) was 0.848 and the relative viability ([1]; first compound 0.05 µM) was 0.894. The relative viability ([1]; first compound 0.1581 µM) was 0.873, the relative viability ([1]; first compound 0.5 µM) was 0.9 and the relative viability ([2]; first compound 0.005 µM) was 1.11. The relative viability ([2]; first compound 0.01581 µM) was 1.05, the relative viability ([2]; first compound 0.05 µM) was 1.19 and the relative viability ([2]; first compound 0.1581 µM) was 1.09. The relative viability ([2]; first compound 0.5 µM) was 1.2, the relative viability ([3]; first compound 0.005 µM) was 1.26 and the relative viability ([3]; first compound 0.01581 µM) was 1.27. It also gave a relative viability ([3]; first compound 0.05 µM) of 1.24, a relative viability ([3]; first compound 0.1581 µM) of 1.31 and a relative viability ([3]; first compound 0.5 µM) of 1.33. The relative viability ([4]; first compound 0.005 µM) was 0.32, the relative viability ([4]; first compound 0.01581 µM) was 0.298 and the relative viability ([4]; first compound 0.05 µM) was 0.339. The relative viability ([4]; first compound 0.1581 µM) was 0.324 and the relative viability ([4]; first compound 0.5 µM) was 0.283.

With 201T the relative viability ([1]; first compound 0.005 µM) was 0.7, the relative viability ([1]; first compound 0.01581 µM) was 0.642 and the relative viability ([1]; first compound 0.05 µM) was 0.722. It also gave a relative viability ([1]; first compound 0.1581 µM) of 0.62, a relative viability ([1]; first compound 0.5 µM) of 0.653 and a relative viability ([2]; first compound 0.005 µM) of 0.483. For the same cell line, the relative viability ([2]; first compound 0.01581 µM) was 0.626, the relative viability ([2]; first compound 0.05 µM) was 0.599 and the relative viability ([2]; first compound 0.1581 µM) was 0.667. It also gave a relative viability ([2]; first compound 0.5 µM) of 0.62, a relative viability ([3]; first compound 0.005 µM) of 1.04 and a relative viability ([3]; first compound 0.01581 µM) of 1.05. It also gave a relative viability ([3]; first compound 0.05 µM) of 1.01, a relative viability ([3]; first compound 0.1581 µM) of 0.949 and a relative viability ([3]; first compound 0.5 µM) of 1.17. For the same cell line, the relative viability ([4]; first compound 0.005 µM) was 0.294, the relative viability ([4]; first compound 0.01581 µM) was 0.353 and the relative viability ([4]; first compound 0.05 µM) was 0.379. It also gave a relative viability ([4]; first compound 0.1581 µM) of 0.38 and a relative viability ([4]; first compound 0.5 µM) of 0.31.

NCI-H358 gave a relative viability ([1]; first compound 0.005 µM) of 0.484, a relative viability ([1]; first compound 0.01581 µM) of 0.316 and a relative viability ([1]; first compound 0.05 µM) of 0.239. For the same cell line, the relative viability ([1]; first compound 0.1581 µM) was 0.19, the relative viability ([1]; first compound 0.5 µM) was 0.189 and the relative viability ([2]; first compound 0.005 µM) was 0.406. The relative viability ([2]; first compound 0.01581 µM) was 0.373, the relative viability ([2]; first compound 0.05 µM) was 0.284 and the relative viability ([2]; first compound 0.1581 µM) was 0.273. The relative viability ([2]; first compound 0.5 µM) was 0.22, the relative viability ([3]; first compound 0.005 µM) was 0.512 and the relative viability ([3]; first compound 0.01581 µM) was 0.423. For the same cell line, the relative viability ([3]; first compound 0.05 µM) was 0.286, the relative viability ([3]; first compound 0.1581 µM) was 0.167 and the relative viability ([3]; first compound 0.5 µM) was 0.197. For the same cell line, the relative viability ([4]; first compound 0.005 µM) was 0.16, the relative viability ([4]; first compound 0.01581 µM) was 0.146 and the relative viability ([4]; first compound 0.05 µM) was 0.153. It also gave a relative viability ([4]; first compound 0.1581 µM) of 0.137 and a relative viability ([4]; first compound 0.5 µM) of 0.141.
